# Data as given in publication PMC9636434, “Discovery of small molecule agonists of the Relaxin Family Peptide Receptor 2” (Communications Biology, 2022).
# Like-named read-outs stand apart in the source and are kept apart here.
# Experiment: Pharmacokinetic study, 3 mg/kg IV, 10 mg/kg PO and 10 mg/kg PO QD*3, plasma, liver and bone
# Type: in vivo, mouse
# Details: female, mouse
# Procedure: The concentration of compound in plasma, liver, and long bones was detected using liquid chromatography tandem mass spectrometry (LC-MS/MS). Samples were collected after a single intraperitoneal (IP) administration at 30 mg/kg, a single intravenous (IV) administration at 3 mg/kg, a single oral (PO) administration at 10 mg/kg, and a daily PO administration for 3 consecutive days at 10 mg/kg. The compound was formulated in 75% PEG300 + 25% of 40% aq. HPBCD for IV and PO administration and in 60% Phosal + 40% PEG300 for IP administration. All tissue samples were homogenized in water at a tissue weight to water volume ratio 1:3.
# IV administration, one 10 mg/kg PO administration and three 10 mg/kg PO administrations (QD*3). a Plasma, b liver and c bone profiles in female mice. The actual concentration (ng/g) is the detected value (ng/mL) multiplied by 4. Drug vehicle is 25% aq. 40% HP-b-CD - 75% PEG300. 3 mice were used per time point. Results are expressed as the mean ± SEM.
compound,measurement,setting,value
O=C1Nc2ccc(-c3cc(C(F)(F)F)cc(C(F)(F)F)c3)cc2C(=O)N2CCN(C(=O)COc3ccc(OC(F)(F)F)cc3I)C[C@@H]12 [compound 6641],concentration at 48 h,"C57BL/6J, bone (long bones), iv, 3 mg/kg, bone, IV, 48 h, individual animals, N/A: Below detection level, read-out: Bone 6641 IV concentration",3.84 ng/g
same,concentration at 0.25 h,"C57BL/6J, bone (long bones), po, 10 mg/kg, bone, PO (QD*3), 0.25 h, individual animals, read-out: Bone 6641 PO (QD*3) concentration",19.5 ng/g
same,concentration at 0.5 h,"C57BL/6J, bone (long bones), po, 10 mg/kg, bone, PO (QD*3), 0.5 h, individual animals, read-out: Bone 6641 PO (QD*3) concentration",54.2 ng/g
same,concentration at 1 h,"C57BL/6J, bone (long bones), po, 10 mg/kg, bone, PO (QD*3), 1 h, individual animals, read-out: Bone 6641 PO (QD*3) concentration",168 ng/g
same,concentration at 3 h,"C57BL/6J, bone (long bones), po, 10 mg/kg, bone, PO (QD*3), 3 h, individual animals, read-out: Bone 6641 PO (QD*3) concentration",337 ng/g
same,concentration at 7 h,"C57BL/6J, bone (long bones), po, 10 mg/kg, bone, PO (QD*3), 7 h, individual animals, read-out: Bone 6641 PO (QD*3) concentration",141 ng/g
same,concentration at 24 h,"C57BL/6J, bone (long bones), po, 10 mg/kg, bone, PO (QD*3), 24 h, individual animals, read-out: Bone 6641 PO (QD*3) concentration",7.05 ng/g
same,concentration at 0.083 h,"C57BL/6J, bone (long bones), po, 10 mg/kg, bone, PO, 0.083 h, individual animals, N/A: Below detection level, read-out: Bone 6641 PO concentration",3.07 ng/g
same,concentration at 0.25 h,"C57BL/6J, bone (long bones), po, 10 mg/kg, bone, PO, 0.25 h, individual animals, read-out: Bone 6641 PO concentration",5.39 ng/g
same,concentration at 0.5 h,"C57BL/6J, bone (long bones), po, 10 mg/kg, bone, PO, 0.5 h, individual animals, read-out: Bone 6641 PO concentration",27.1 ng/g
same,concentration at 1 h,"C57BL/6J, bone (long bones), po, 10 mg/kg, bone, PO, 1 h, individual animals, read-out: Bone 6641 PO concentration",114 ng/g
same,concentration at 3 h,"C57BL/6J, bone (long bones), po, 10 mg/kg, bone, PO, 3 h, individual animals, read-out: Bone 6641 PO concentration",140 ng/g
same,concentration at 0.083 h,"C57BL/6 J, liver, iv, 3 mg/kg, liver, IV, 0.083 h, individual animals, read-out: Liver 6641 IV concentration",26000 ng/g
same,concentration at 0.25 h,"C57BL/6 J, liver, iv, 3 mg/kg, liver, IV, 0.25 h, individual animals, read-out: Liver 6641 IV concentration",17200 ng/g
same,concentration at 0.5 h,"C57BL/6J, liver, iv, 3 mg/kg, liver, IV, 0.5 h, individual animals, read-out: Liver 6641 IV concentration",8740 ng/g
same,concentration at 3 h,"C57BL/6J, liver, iv, 3 mg/kg, liver, IV, 3 h, individual animals, read-out: Liver 6641 IV concentration",1570 ng/g
same,concentration at 7 h,"C57BL/6 J, liver, iv, 3 mg/kg, liver, IV, 7 h, individual animals, read-out: Liver 6641 IV concentration",474 ng/g
same,concentration at 24 h,"C57BL/6 J, liver, iv, 3 mg/kg, liver, IV, 24 h, individual animals, read-out: Liver 6641 IV concentration",28 ng/g
same,concentration at 0.083 h,"C57BL/6 J, liver, po, 10 mg/kg, liver, PO (QD*3), 0.083 h, individual animals, read-out: Liver 6641 PO (QD*3) concentration",44.1 ng/g
same,concentration at 1 h,"C57BL/6J, liver, po, 10 mg/kg, liver, PO (QD*3), 1 h, individual animals, read-out: Liver 6641 PO (QD*3) concentration",3320 ng/g
same,concentration at 3 h,"C57BL/6J, liver, po, 10 mg/kg, liver, PO (QD*3), 3 h, individual animals, read-out: Liver 6641 PO (QD*3) concentration",1900 ng/g
same,concentration at 7 h,"C57BL/6 J, liver, po, 10 mg/kg, liver, PO (QD*3), 7 h, individual animals, read-out: Liver 6641 PO (QD*3) concentration",1010 ng/g
same,concentration at 24 h,"C57BL/6 J, liver, po, 10 mg/kg, liver, PO (QD*3), 24 h, individual animals, read-out: Liver 6641 PO (QD*3) concentration",32.3 ng/g
same,concentration at 0.083 h,"C57BL/6 J, liver, po, 10 mg/kg, liver, PO, 0.083 h, individual animals, N/A: Below detection level, read-out: Liver 6641 PO concentration",5.14 ng/g
same,concentration at 0.25 h,"C57BL/6 J, liver, po, 10 mg/kg, liver, PO, 0.25 h, individual animals, read-out: Liver 6641 PO concentration",321 ng/g
same,concentration at 1 h,"C57BL/6J, liver, po, 10 mg/kg, liver, PO, 1 h, individual animals, read-out: Liver 6641 PO concentration",3040 ng/g
same,concentration at 3 h,"C57BL/6J, liver, po, 10 mg/kg, liver, PO, 3 h, individual animals, read-out: Liver 6641 PO concentration",1940 ng/g
same,concentration at 7 h,"C57BL/6 J, liver, po, 10 mg/kg, liver, PO, 7 h, individual animals, read-out: Liver 6641 PO concentration",1210 ng/g
same,concentration at 24 h,"C57BL/6 J, liver, po, 10 mg/kg, liver, PO, 24 h, individual animals, read-out: Liver 6641 PO concentration",28.5 ng/g
same,concentration at 48 h,"C57BL/6 J, liver, po, 10 mg/kg, liver, PO, 48 h, individual animals, read-out: Liver 6641 PO concentration",2.88 ng/g
same,concentration at 0.083 h,"C57BL/6 J, plasma, iv, 3 mg/kg, IV, Time 0.083 h, individual values (1)-(3), read-out: Plasma concentration",2030 ng/mL
same,concentration at 0.25 h,"C57BL/6 J, plasma, iv, 3 mg/kg, IV, Time 0.25 h, individual values (1)-(3), read-out: Plasma concentration",1260 ng/mL
same,concentration at 0.5 h,"C57BL/6 J, plasma, iv, 3 mg/kg, IV, Time 0.5 h, individual values (1)-(3), read-out: Plasma concentration",721 ng/mL
same,concentration at 1 h,"C57BL/6 J, plasma, iv, 3 mg/kg, IV, Time 1 h, individual values (1)-(3), read-out: Plasma concentration",343 ng/mL
same,concentration at 3 h,"C57BL/6 J, plasma, iv, 3 mg/kg, IV, Time 3 h, individual values (1)-(3), read-out: Plasma concentration",220 ng/mL
same,concentration at 7 h,"C57BL/6 J, plasma, iv, 3 mg/kg, IV, Time 7 h, individual values (1)-(3), read-out: Plasma concentration",67.6 ng/mL
same,concentration at 24 h,"C57BL/6 J, plasma, iv, 3 mg/kg, IV, Time 24 h, individual values (1)-(3), read-out: Plasma concentration",4.37 ng/mL
same,concentration at 48 h,"C57BL/6 J, plasma, iv, 3 mg/kg, IV, Time 48 h, individual values (1)-(3), N/A: Below detection level, read-out: Plasma concentration",0.874 ng/mL
same,concentration at 0.083 h,"C57BL/6 J, plasma, po, 10 mg/kg, PO (QD*3), Time 0.083 h, individual values (1)-(3), read-out: Plasma concentration",8.04 ng/mL
same,concentration at 0.25 h,"C57BL/6 J, plasma, po, 10 mg/kg, PO (QD*3), Time 0.25 h, individual values (1)-(3), read-out: Plasma concentration",95.9 ng/mL
same,concentration at 1 h,"C57BL/6 J, plasma, po, 10 mg/kg, PO (QD*3), Time 1 h, individual values (1)-(3), read-out: Plasma concentration",336 ng/mL
same,concentration at 3 h,"C57BL/6 J, plasma, po, 10 mg/kg, PO (QD*3), Time 3 h, individual values (1)-(3), read-out: Plasma concentration",264 ng/mL
same,concentration at 7 h,"C57BL/6 J, plasma, po, 10 mg/kg, PO (QD*3), Time 7 h, individual values (1)-(3), read-out: Plasma concentration",144 ng/mL
same,concentration at 24 h,"C57BL/6 J, plasma, po, 10 mg/kg, PO (QD*3), Time 24 h, individual values (1)-(3), read-out: Plasma concentration",5.56 ng/mL
same,concentration at 48 h,"C57BL/6 J, plasma, po, 10 mg/kg, PO (QD*3), Time 48 h, individual values (1)-(3), N/A: Below detection level, read-out: Plasma concentration",1.04 ng/mL
same,concentration at 0.083 h,"C57BL/6 J, plasma, po, 10 mg/kg, PO, Time 0.083 h, individual values (1)-(3), N/A: Below detection level, read-out: Plasma concentration",1.64 ng/mL
same,concentration at 0.25 h,"C57BL/6 J, plasma, po, 10 mg/kg, PO, Time 0.25 h, individual values (1)-(3), read-out: Plasma concentration",43.8 ng/mL
same,concentration at 1 h,"C57BL/6 J, plasma, po, 10 mg/kg, PO, Time 1 h, individual values (1)-(3), read-out: Plasma concentration",369 ng/mL
same,concentration at 3 h,"C57BL/6 J, plasma, po, 10 mg/kg, PO, Time 3 h, individual values (1)-(3), read-out: Plasma concentration",219 ng/mL
same,concentration at 7 h,"C57BL/6 J, plasma, po, 10 mg/kg, PO, Time 7 h, individual values (1)-(3), read-out: Plasma concentration",134 ng/mL
same,concentration at 24 h,"C57BL/6 J, plasma, po, 10 mg/kg, PO, Time 24 h, individual values (1)-(3), read-out: Plasma concentration",4.25 ng/mL
same,concentration at 48 h,"C57BL/6 J, plasma, po, 10 mg/kg, PO, Time 48 h, individual values (1)-(3), N/A: Below detection level, read-out: Plasma concentration",1.39 ng/mL
